Where two headings read alike, the source gives them in different places.
Tests used:
CB1 [1] = biological target: T1, CB1 (Rattus norvegicus, UniProt P20272); assay: CB1 receptor binding affinity (Ki)
Protocol: Some disclosed compounds were tested for CB1 and CB2 receptor binding affinity (Tables 1, 2, 3, 4, 5, 6). As used herein “binding affinity” is represented by the Ki value. The Ki value is the affinity constant and describes the affinity of the compound for the receptor. […] A detailed description of the methods used to test “binding affinity” of compounds is given in Makriyannis, et al., US 2007, 0135388 and in Papahatjis, et al. J. Med. Chem. (2007) 4048, the content of each of which is hereby incorporated by reference.

CB2 receptor = CB2 receptor (UniProt P47936); assay: CB2 receptor binding affinity (Ki); conditions: read-out: CB2 receptor Ki
Protocol: Some disclosed compounds were tested for CB1 and CB2 receptor binding affinity (Tables 1, 2, 3, 4, 5, 6). As used herein “binding affinity” is represented by the Ki value. The Ki value is the affinity constant and describes the affinity of the compound for the receptor. The lower the Ki value, the higher the affinity of the compound for the receptor. A detailed description of the methods used to test “binding affinity” of compounds is given in Makriyannis, et al., US 2007, 0135388 and in Papahatjis, et al. J. Med. Chem. (2007) 4048, the content of each of which is hereby incorporated by reference.

CB1 [2] = biological target: T1, CB1; assay: cyclic adenosine monophosphate (cAMP) assay at CB1; format: cell-based; conditions: for EC50: read-out: Functional Potency (EC50); for Emax: read-out: % Efficacy
Protocol: (§1) Functional characterization of some of the disclosed compounds was performed by using the cyclic adenosine monophosphate (cAMP) assay. The functional potency of the compound is represented by the EC50 value. The lower the EC50 value, the higher the functional potency. A detailed description of the cyclic adenosine monophosphate (cAMP) assay is given in Nikas et al. J. Med. Chem. (2010) 6996.

CB2 = CB2 (Homo sapiens, UniProt P34972); assay: cyclic adenosine monophosphate (cAMP) assay at CB2; format: cell-based; conditions: for EC50: read-out: Functional Potency (EC50); for Emax: read-out: % Efficacy
Protocol: as §1

CB2, sequence (P34972 whole entry, species assumed): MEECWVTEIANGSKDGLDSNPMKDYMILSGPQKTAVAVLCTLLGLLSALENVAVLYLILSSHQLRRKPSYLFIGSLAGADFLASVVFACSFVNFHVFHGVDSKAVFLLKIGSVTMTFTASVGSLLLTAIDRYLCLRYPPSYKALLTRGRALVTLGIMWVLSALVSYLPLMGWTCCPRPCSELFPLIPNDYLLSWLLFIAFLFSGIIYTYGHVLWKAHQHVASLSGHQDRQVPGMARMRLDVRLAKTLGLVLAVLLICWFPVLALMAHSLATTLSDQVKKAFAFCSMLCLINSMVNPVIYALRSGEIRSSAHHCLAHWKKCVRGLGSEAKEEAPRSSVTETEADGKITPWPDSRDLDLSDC
T1 sequence (P20272 whole entry): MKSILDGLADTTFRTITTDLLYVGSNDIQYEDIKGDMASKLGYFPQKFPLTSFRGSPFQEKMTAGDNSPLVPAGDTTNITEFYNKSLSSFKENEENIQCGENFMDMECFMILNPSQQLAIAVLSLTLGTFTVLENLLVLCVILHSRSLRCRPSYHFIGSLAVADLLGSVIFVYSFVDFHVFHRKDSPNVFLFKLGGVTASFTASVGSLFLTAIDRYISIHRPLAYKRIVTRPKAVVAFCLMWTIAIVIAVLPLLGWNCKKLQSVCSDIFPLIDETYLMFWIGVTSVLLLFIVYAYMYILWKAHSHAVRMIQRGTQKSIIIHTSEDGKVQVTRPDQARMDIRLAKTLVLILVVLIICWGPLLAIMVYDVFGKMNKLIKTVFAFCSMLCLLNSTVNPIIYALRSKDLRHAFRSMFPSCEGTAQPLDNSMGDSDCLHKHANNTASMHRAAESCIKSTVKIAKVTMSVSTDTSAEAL

Molecule | Ki (CB2 receptor) [nM] | Functional Activity (CB1 [2]) | EC50 (CB1 [2]) [nM] | Ki (CB1 [1]) [nM] | also measured
2-[(1S,6S)-3-(Hydroxymethyl)-6-(1-methylethenyl)-2-cyclohexen-1-yl]-5-(6-morpholino-2-methylhexane-2-yl)-1,3-dimethoxy-benzene [Compound 74] | 16 | Agonist at CB1 | 50.4 | – | Ki (CB1 [1]; read-out: CB1 receptor Ki): 70 nM; % Efficacy (CB1 [2]): 51%; % Efficacy (CB2): 28%; Functional Activity (CB2): Partial agonist at CB2; EC50 (CB2): 6.7 nM
C=C(C)[C@H]1CCC(CO)=C[C@@H]1c1c(O)cc(C2(CCCCCC)CC2)cc1O [Compound 4.3, 2-[(1S,6S)-3-(Hydroxymethyl)-6-(1-methylethenyl)-2-cyclohexen-1-yl]-5-(1-hexyl-cyclopropyl)resorcinol] | 14 | Agonist at CB1 | 1.6 | 16 | Emax (CB1 [2]): 58%; Functional Activity (CB2): Partial agonist at CB2; Emax (CB2): 35%; EC50 (CB2): 12 nM
C=C(C)[C@H]1CCC(CO)=C[C@@H]1c1c(O)cc(C2(CCCCCC)CCCC2)cc1O [Compound 4.4, 2-[(1S,6S)-3-(Hydroxymethyl)-6-(1-methylethenyl)-2-cyclohexen-1-yl]-5-(1-hexyl-cyclopentyl)resorcinol] | 16 | Agonist at CB1 | 17 | 78 | Emax (CB1 [2]): 81%
C=C(C)[C@H]1CCC(CO)=C[C@@H]1c1c(O)cc(C2(CCCCCC)SCCS2)cc1O [Compound 4.6, 2-[(1S,6S)-3-(Hydroxymethyl)-6-(1-methylethenyl)-2-cyclohexen-1-yl]-5-(2-hexyl-1,3-dithiolane-2-yl)resorcinol] | 28 | Agonist at CB1 | 267 | 71 | Emax (CB1 [2]): 84%
C=C(C)[C@H]1CCC(CO)=C[C@@H]1c1c(O)cc(C2(CCCCCC#N)CCC2)cc1O [Compound 34, 2-[(1S,6S)-3-(Hydroxymethyl)-6-(1-methylethenyl)-2-cyclohexen-1-yl]-5-[(5-cyanopentyl)cyclobutyl]resorcinol] | 5.5 | Agonist at CB1 | 3.2 | 20 | Emax (CB1 [2]): 83%
CCCCCCC1(c2cc(O)c([C@H]3C=C(C)[C@H]4C[C@@H]3C4(C)C)c(O)c2)SCCS1 [Compound 40.6, (+)-2-[(1R,4S,5S)-2,6,6-trimethylbicylco[3.1.1]hept-2-en-4-yl]-5-(2-hexyl-1,3-dithiolane-2-yl)resorcinol] | 7.9 | Partial agonist at CB1 | 21 | 19.2 | Emax (CB1 [2]): 38%; Functional Activity (CB2): Partial agonist at CB2; Emax (CB2): 38%; EC50 (CB2): 8.7 nM
C=C(C)[C@@H]1CCC(=O)C[C@H]1c1c(O)cc(C23CC4CC(CC(C4)C2)C3)cc1O [Compound 48.2, (3R,4R)-3-[4-(1-Adamantyl)-2,6-dihydroxyphenyl]-4-isopropenylcyclohexan-1-one] | > 1000 | – | – | 694 | –
C=C(C)[C@@H]1CCC(=COC)C[C@H]1c1c(O)cc(C23CC4CC(CC(C4)C2)C3)cc1O [Compound 49.2, (3R,4R)-3-[4-(1-Adamantyl)-2,6-dihydroxyphenyl]-4-isopropenyl-1-(methoxymethylene)cyclohexane] | 375 | – | – | 1760 | –
C=C(C)[C@@H]1CC[C@@H](CO)C[C@H]1c1c(O)cc(C23CC4CC(CC(C4)C2)C3)cc1O [Compound 51.2, (1R,3R,4R)-3-[4-(1-Adamantyl)-2,6-dihydroxyphenyl]-4-isopropenyl-1-(hydroxymethyl)cyclohexane] | 16 | – | – | 910 | –
C=C(C=O)[C@@H]1CC[C@@H](CO)C[C@H]1c1c(O)cc(C23CC4CC(CC(C4)C2)C3)cc1O [Compound 53.2, (1R,3R,4R)-3-[4-(1-Adamantyl)-2,6-dihydroxyphenyl]-4-[2′-(propenalyl)]-1-(hydroxymethyl)cyclohexane] | 20 | – | – | 1400 | –
C=C(CO)[C@@H]1CC[C@@H](CO)C[C@H]1c1c(O)cc(C23CC4CC(CC(C4)C2)C3)cc1O [Compound 54.2, (1R,3R,4R)-3-[4-(1-Adamantyl)-2,6-dihydroxyphenyl]-4-[2′-(3′-hydroxyprop-1′-enyl)]-1-(hydroxymethyl)cyclohexane] | 185 | – | – | 4140 | –
C=C(C)[C@@H]1CC[C@@H](O)C[C@H]1c1c(O)cc(C23CC4CC(CC(C4)C2)C3)cc1O [Compound 55, (1R,3R,4R)-3-[4-(1-Adamantyl)-2,6-dihydroxyphenyl]-4-isopropenyl-1-hydroxycyclohexane] | 343 | – | – | 2400 | –
CC(C)[C@H]1CC[C@@H](CO)C[C@H]1c1c(O)cc(C23CC4CC(CC(C4)C2)C3)cc1O [Compound 56, (1R,3R,4R)-3-[4-(1-Adamantyl)-2,6-dihydroxyphenyl]-4-isopropyl-1-(hydroxymethyl)cyclohexane] | 23 | – | – | 998 | –
C=C(C)[C@@H]1CC[C@@H](C(=O)O)C[C@H]1c1c(O)cc(C(C)(C)CCCCCC)cc1O [Compound 58.2, (1R,3R,4R)-3-[4-(1′,1′-Dimethylheptyl)-2,6-dihydroxyphenyl]-4-isopropenyl-1-carboxylylcyclohexane] | > 1000 | – | – | > 1000 | –
C=C(C)[C@@H]1CC[C@@H](C(N)=O)C[C@H]1c1c(O)cc(C(C)(C)CCCCCC)cc1O [Compound 59.1, (1R,3R,4R)-3-[4-(1′,1′-Dimethylheptyl)-2,6-dihydroxyphenyl]-4-isopropenyl-1-carboxamidocyclohexane] | > 1000 | – | – | > 1000 | –
C=C(C)[C@@H]1CCC(=O)C[C@H]1c1c(O)cc(C(C)(C)CCCCCC)cc1O [Compound 61.2, (3R,4R)-3-[4-(1′,1′-Dimethylheptyl)-2,6-dihydroxyphenyl]-4-isopropenylcyclohexan-1-one] | 37 | – | – | > 1000 | –
C=C(C)[C@@H]1CC[C@@H](N2CCOCC2)C[C@H]1c1c(O)cc(C(C)(C)CCCCCC)cc1O [Compound 62, (1R,3R,4R)-3-[4-(1′,1′-Dimethylheptyl)-2,6-dihydroxyphenyl]-4-isopropenyl-1-morpholinylcyclohexane] | 14 | – | – | 69 | –
C=C(C)[C@H]1CCC(=O)C[C@@H]1c1c(O)cc(C(C)(C)CCCCCC)cc1O [Compound 66.2, (3S,4S)-3-[4-(1′,1′-Dimethylheptyl)-2,6-dihydroxyphenyl]-4-isopropenylcyclohexan-1-one] | 41 | – | – | 30 to 60 | –
C=C(C)C1CCC(O)CC1c1c(O)cc(C(C)(C)CCCCCC)cc1O [Compound 68, (1R,3R,4R)-3-[4-(1′,1′-Dimethylheptyl)-2,6-dihydroxyphenyl]-4-isopropenyl-1-hydroxycyclohexane] | 33 | – | – | > 1000 | –

Reference: patent publication US9517989B2, “2-cycloalkyl resorcinol cannabinergic ligands” (priority 2012, dated 2016)
